Assay results taken from patent US20260365637A1, “DUAL EZH2-HSP90 INHIBITORS” (TAIPEI MEDICAL UNIVERSITY, priority 2023, published 2026).
pIC50: −log10 of the molar value.

Key:
[1] = tested on: GBM cells; settings: literature, cited from earlier work
[2] = tested on: brafv600e mutant GBM; settings: literature; cited from earlier work
[3] = tested on: Pt3R cells; assay: Cell viability / cytotoxicity of TMZ-resistant Pt3R cells (CCK8); format: cell-based, human; settings: for pIC50: read-out: Cell growth inhibitory effect IC50
[4] = molecular target: EZH2 (Core Histone) (Homo sapiens, UniProt Q15910); assay: EZH2 inhibition assay (Reaction Biology Corporation); format: biochemical
EZH2 (Core Histone), sequence (Q15910 whole entry): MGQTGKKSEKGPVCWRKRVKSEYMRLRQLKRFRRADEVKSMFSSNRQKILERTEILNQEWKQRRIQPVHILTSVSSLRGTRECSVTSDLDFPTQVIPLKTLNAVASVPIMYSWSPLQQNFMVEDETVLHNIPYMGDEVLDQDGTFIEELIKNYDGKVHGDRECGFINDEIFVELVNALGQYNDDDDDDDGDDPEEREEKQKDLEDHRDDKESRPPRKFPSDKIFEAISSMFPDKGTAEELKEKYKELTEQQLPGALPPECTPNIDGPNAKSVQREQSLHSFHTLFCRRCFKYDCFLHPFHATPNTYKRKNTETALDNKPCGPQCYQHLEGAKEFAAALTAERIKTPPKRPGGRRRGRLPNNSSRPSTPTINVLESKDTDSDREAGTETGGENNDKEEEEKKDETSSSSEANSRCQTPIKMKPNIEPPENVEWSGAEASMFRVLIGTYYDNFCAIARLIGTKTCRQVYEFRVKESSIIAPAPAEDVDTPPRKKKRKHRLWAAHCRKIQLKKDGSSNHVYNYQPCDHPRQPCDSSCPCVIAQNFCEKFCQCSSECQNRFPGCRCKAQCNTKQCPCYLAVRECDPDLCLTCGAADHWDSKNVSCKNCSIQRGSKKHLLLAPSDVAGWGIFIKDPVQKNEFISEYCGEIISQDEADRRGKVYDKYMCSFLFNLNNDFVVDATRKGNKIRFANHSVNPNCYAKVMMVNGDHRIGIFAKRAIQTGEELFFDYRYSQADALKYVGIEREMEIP
EZH2 (Core Histone), sequence (O75530 whole entry partner): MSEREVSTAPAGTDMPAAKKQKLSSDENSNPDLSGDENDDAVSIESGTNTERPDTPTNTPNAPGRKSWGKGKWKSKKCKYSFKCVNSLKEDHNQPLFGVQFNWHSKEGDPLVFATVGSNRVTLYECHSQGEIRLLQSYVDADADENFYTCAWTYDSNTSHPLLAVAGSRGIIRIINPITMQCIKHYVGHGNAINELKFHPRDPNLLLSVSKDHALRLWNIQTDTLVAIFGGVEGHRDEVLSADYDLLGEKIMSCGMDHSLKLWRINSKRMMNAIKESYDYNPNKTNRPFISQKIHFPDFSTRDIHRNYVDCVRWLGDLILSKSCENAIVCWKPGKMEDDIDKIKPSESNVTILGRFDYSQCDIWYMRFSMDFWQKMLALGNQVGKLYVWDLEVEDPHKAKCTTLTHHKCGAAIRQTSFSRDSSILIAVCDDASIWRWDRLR
EZH2 (Core Histone), sequence (Q15022 whole entry partner): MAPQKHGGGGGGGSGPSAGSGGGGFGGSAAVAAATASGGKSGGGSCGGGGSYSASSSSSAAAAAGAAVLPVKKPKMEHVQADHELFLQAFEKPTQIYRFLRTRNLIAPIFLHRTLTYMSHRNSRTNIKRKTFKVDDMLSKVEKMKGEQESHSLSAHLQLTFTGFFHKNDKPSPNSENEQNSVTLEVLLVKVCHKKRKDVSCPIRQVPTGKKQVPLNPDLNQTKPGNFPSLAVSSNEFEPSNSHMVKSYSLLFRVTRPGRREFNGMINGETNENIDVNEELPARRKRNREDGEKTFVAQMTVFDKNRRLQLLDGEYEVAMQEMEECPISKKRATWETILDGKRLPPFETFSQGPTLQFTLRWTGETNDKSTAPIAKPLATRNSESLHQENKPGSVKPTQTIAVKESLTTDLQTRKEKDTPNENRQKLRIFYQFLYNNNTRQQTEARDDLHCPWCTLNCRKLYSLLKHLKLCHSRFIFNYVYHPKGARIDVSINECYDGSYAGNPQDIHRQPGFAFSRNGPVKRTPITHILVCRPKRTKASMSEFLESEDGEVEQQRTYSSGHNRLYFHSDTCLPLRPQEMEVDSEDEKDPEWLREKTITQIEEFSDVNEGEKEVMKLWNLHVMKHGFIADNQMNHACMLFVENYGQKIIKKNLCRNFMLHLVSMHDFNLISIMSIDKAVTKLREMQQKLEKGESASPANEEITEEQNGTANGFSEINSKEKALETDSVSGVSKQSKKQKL
EZH2 (Core Histone), sequence (Q09028 whole entry partner): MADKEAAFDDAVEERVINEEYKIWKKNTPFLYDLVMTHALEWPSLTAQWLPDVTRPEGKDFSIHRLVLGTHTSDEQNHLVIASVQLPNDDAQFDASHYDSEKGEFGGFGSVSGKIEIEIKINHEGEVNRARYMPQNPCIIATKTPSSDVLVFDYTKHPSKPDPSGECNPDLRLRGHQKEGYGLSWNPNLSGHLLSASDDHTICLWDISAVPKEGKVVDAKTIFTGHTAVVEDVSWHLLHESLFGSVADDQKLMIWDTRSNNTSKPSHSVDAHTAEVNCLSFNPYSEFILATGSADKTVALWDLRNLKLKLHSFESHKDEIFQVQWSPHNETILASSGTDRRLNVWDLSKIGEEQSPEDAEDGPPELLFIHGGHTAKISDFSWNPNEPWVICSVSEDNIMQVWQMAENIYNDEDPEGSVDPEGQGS
EZH2 (Core Histone), sequence (Q6ZN18 whole entry partner): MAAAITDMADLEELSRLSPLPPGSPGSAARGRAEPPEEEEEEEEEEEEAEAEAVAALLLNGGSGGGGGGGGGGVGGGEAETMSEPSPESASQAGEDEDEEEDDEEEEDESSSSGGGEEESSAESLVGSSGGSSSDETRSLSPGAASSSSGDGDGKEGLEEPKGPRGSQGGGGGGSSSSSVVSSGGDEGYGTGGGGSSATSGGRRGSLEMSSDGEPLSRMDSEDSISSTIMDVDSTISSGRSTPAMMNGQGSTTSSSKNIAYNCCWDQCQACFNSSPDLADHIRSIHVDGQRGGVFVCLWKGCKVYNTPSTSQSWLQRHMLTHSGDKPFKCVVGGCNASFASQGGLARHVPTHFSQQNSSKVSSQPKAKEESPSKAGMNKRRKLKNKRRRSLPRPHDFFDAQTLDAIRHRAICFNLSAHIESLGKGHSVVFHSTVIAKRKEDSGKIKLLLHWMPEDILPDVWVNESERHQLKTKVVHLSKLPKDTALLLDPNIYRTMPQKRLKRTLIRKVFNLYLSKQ
Description: The EZH2 inhibitory ability of the synthesized adduct was assessed by Reaction Biology Corporation, Malvern, PA (http://www.reactionbiology.com).

[5] = molecular target: HSP90a (Homo sapiens, UniProt P07900); assay: In vitro HSP90 inhibition assay (Reaction Biology Corporation); format: biochemical
Description: The HSP90 inhibitory activity of the synthesized adduct was assessed by Reaction Biology Corporation, Malvern, PA (http://www.reactionbiology.com).
An in-vitro experiment was performed to assess the inhibitory effect of the synthesized adducts on the heat shock protein 90 (HSP90).

[6] = tested on: GBM cell lines; assay: Preliminary screening of cell growth inhibition in GBM cell lines; format: cell-based; settings: for cytotoxicity / cell growth inhibition against GBM cell lines: preliminary screening
Description: As such, Hsp90 is an ATP-dependent molecular chaperone that regulates protein conformation, stability, and degradation. Several HSP90 inhibitors have been evaluated for their anti-GBM efficacy at a preliminary level. […] Reduction in the mRNA and protein expression of EGFR, PDGFRA, CDK4, and NF1 in heterogeneous GBM cells was also evidenced in treatment with AUY922.

Row | SMILES | pIC50 [4] | HSP90 inhibitory potential in words [5] | pIC50 [5] | cell growth / viability inhibitory effect in words [3] | pIC50 [3] | further results
1 | CCNC(=O)c1noc(-c2cc(C(C)C)c(O)cc2O)c1-c1ccc(CN2CCOCC2)cc1 [AUY922] | – | – | – | – | – | mRNA and protein expression of EGFR, PDGFRA, CDK4, and NF1 ([1]; heterogeneous GBM cells): Reduction; anti-GBM effect in GBM cells [1]: led to GBM cell death via apoptosis and autophagy
2 | COc1c(C)cnc(Cn2cnc3c(Cl)nc(N)nc32)c1C [BIIB021] | – | – | – | – | – | resistance to molecular targeted therapy [2]: overcome resistance to molecular targeted therapy
3 | CCN(c1cc(-c2ccc(NC(=O)c3cc(C(C)C)c(O)cc3O)cc2)cc(C(=O)NCc2c(C)cc(C)[nH]c2=O)c1C)C1CCOCC1 [Compound 1, 4′-(2,4-dihydroxy-5-isopropylbenzamido)-N-((4,6-dimethyl-2-oxo-1,2-dihydropyridin-3-yl)methyl)-5-(ethyl(tetrahydro-2H-pyran-4-yl)amino)-4-methyl-[1,1′-biphenyl]-3-carboxamide] | 8.21 | devoid of HSP90 inhibitory potential | – | unable to exert cell growth inhibitory effects | < 4.10 | –
4 | CCCN(C(=O)c1cc(C(C)C)c(O)cc1O)c1ccc(-c2cc(C(=O)NCc3c(C)cc(C)[nH]c3=O)c(C)c(N(CC)C3CCOCC3)c2)cc1 [Compound 5, 4′-(2,4-dihydroxy-5-isopropyl-N-propylbenzamido)-N-((4,6-dimethyl-2-oxo-1,2-dihydropyridin-3-yl)methyl)-5-(ethyl(tetrahydro-2H-pyran-4-yl)amino)-4-methyl-[1,1′-biphenyl]-3-carboxamide] | 7.66 | could not replicate the activity-conferring trends | – | – | < 4.10 | –
5 | CCN(c1cc(-c2ccc(N(Cc3ccccc3)C(=O)c3cc(C(C)C)c(O)cc3O)cc2)cc(C(=O)NCc2c(C)cc(C)[nH]c2=O)c1C)C1CCOCC1 [Compound 6, 4′-(N-benzyl-2,4-dihydroxy-5-isopropylbenzamido)-N-((4,6-dimethyl-2-oxo-1,2-dihydropyridin-3-yl)methyl)-5-(ethyl(tetrahydro-2H-pyran-4-yl)amino)-4-methyl-[1,1′-biphenyl]-3-carboxamide] | 7.93 | could not replicate the activity-conferring trends | – | – | < 4.10 | –
6 | CCCN(C(=O)c1cc(C(C)C)c(O)cc1O)c1cccc(-c2cc(C(=O)NCc3c(C)cc(C)[nH]c3=O)c(C)c(N(CC)C3CCOCC3)c2)c1 [Compound 9, 3′-(2,4-dihydroxy-5-isopropyl-N-propylbenzamido)-N-((4,6-dimethyl-2-oxo-1,2-dihydropyridin-3-yl)methyl)-5-(ethyl(tetrahydro-2H-pyran-4-yl)amino)-4-methyl-[1,1′-biphenyl]-3-carboxamide] | 7.40 | could not replicate the activity-conferring trends | 5.03 | unable to exert cell growth inhibitory effects | < 4.10 | –
7 | CCN(c1cc(-c2cccc(N(Cc3ccccc3)C(=O)c3cc(C(C)C)c(O)cc3O)c2)cc(C(=O)NCc2c(C)cc(C)[nH]c2=O)c1C)C1CCOCC1 [Compound 10, 3′-(N-benzyl-2,4-dihydroxy-5-isopropylbenzamido)-N-((4,6-dimethyl-2-oxo-1,2-dihydropyridin-3-yl)methyl)-5-(ethyl(tetrahydro-2H-pyran-4-yl)amino)-4-methyl-[1,1′-biphenyl]-3-carboxamide] | 6.19 | could not replicate the activity-conferring trends | 5.55 | unable to exert cell growth inhibitory effects | < 4.10 | –
8 | CC(C)c1cc(-c2n[nH]c(=O)n2-c2ccc3c(ccn3C)c2)c(O)cc1O [STA9090] | – | – | – | – | – | cytotoxicity / cell growth inhibition against GBM cell lines [6]: moderate cytotoxicity; cell growth inhibitory effects relative to the cocktail ([6]; single agent vs combination with Tazemetostat): several fold less than that observed with the cocktail
9 | CCN(c1cc(-c2ccc(CN3CCOCC3)cc2)cc(C(=O)NCc2c(C)cc(C)[nH]c2=O)c1C)C1CCOCC1 [Tazemetostat] | – | – | – | unable to exert cell growth inhibitory effects | – | anti-GBM efficacy [6]: did not exhibit anti-GBM efficacy; cytotoxicity / cell growth inhibition against GBM cell lines ([6]; listed as tazemetosat): cytotoxicity-devoid trends; cytotoxicity / cell growth inhibition against GBM cell lines ([6]; listed as tazemetostat (I)): could not exert cell growth inhibitory potential against the GBM cell lines
10 | O=C1C=C(Nc2ccc3cnccc3c2)c2ccccc2C1=O [YZ129] | – | – | – | – | – | anti-GBM effect in GBM cells [1]: promoted apoptosis and exerted GBM cell cycle arrest at the G2/M phase, inhibiting tumour cell proliferation and migration

Second part, led by results:

Row | pIC50 [4] | HSP90 inhibitory potential in words [5] | pIC50 [5] | SMILES | cell growth / viability inhibitory effect in words [3] | pIC50 [3] | further results
11 | 8.69 | devoid of HSP90 inhibitory potential | – | CCN(c1cc(-c2cccc(NC(=O)c3cc(C(C)C)c(O)cc3O)c2)cc(C(=O)NCc2c(C)cc(C)[nH]c2=O)c1C)C1CCOCC1 [Compound 2, 3′-(2,4-dihydroxy-5-isopropylbenzamido)-N-((4,6-dimethyl-2-oxo-1,2-dihydropyridin-3-yl)methyl)-5-(ethyl(tetrahydro-2H-pyran-4-yl)amino)-4-methyl-[1,1′-biphenyl]-3-carboxamide] | unable to exert cell growth inhibitory effects | < 4.10 | potency in inhibiting EZH2 relative to compound 1 ([4]; compound 2 (3′) vs counterpart 1 (4′)): 3 fold
12 | 8.14 | conferred HSP90 inhibitory potential | 6.46 | CCN(c1cc(-c2ccc(N(C)C(=O)c3cc(C(C)C)c(O)cc3O)cc2)cc(C(=O)NCc2c(C)cc(C)[nH]c2=O)c1C)C1CCOCC1 [Compound 3, 4′-(2,4-dihydroxy-5-isopropyl-N-methylbenzamido)-N-((4,6-dimethyl-2-oxo-1,2-dihydropyridin-3-yl)methyl)-5-(ethyl(tetrahydro-2H-pyran-4-yl)amino)-4-methyl-[1,1′-biphenyl]-3-carboxamide] | the only ones to exert cell viability inhibitory potential | 4.56 | –
13 | 8.13 | conferred HSP90 inhibitory potential | 6.08 | CCN(C(=O)c1cc(C(C)C)c(O)cc1O)c1ccc(-c2cc(C(=O)NCc3c(C)cc(C)[nH]c3=O)c(C)c(N(CC)C3CCOCC3)c2)cc1 [Compound 4, N-((4,6-dimethyl-2-oxo-1,2-dihydropyridin-3-yl)methyl)-5-(ethyl(tetrahydro-2H-pyran-4-yl)amino)-4′-(N-ethyl-2,4-dihydroxy-5-isopropylbenzamido)-4-methyl-[1,1′-biphenyl]-3-carboxamide] | – | – | –
14 | 7.44 | conferred HSP90 inhibitory potential | 7.20 | CCN(C(=O)c1cc(C(C)C)c(O)cc1O)c1cccc(-c2cc(C(=O)NCc3c(C)cc(C)[nH]c3=O)c(C)c(N(CC)C3CCOCC3)c2)c1 [Compound 8, N-((4,6-dimethyl-2-oxo-1,2-dihydropyridin-3-yl)methyl)-5-(ethyl(tetrahydro-2H-pyran-4-yl)amino)-3′-(N-ethyl-2,4-dihydroxy-5-isopropylbenzamido)-4-methyl-[1,1′-biphenyl]-3-carboxamide] | the only ones to exert cell viability inhibitory potential | 4.97 | –
